In general, inhibition refers to how much of the control response was suppressed.

In the test the target is T1, GRA38-6xHis (Toxoplasma gondii, UniProt A0A7J6JXD8).
T1 construct: gene TGRH88_051660; signal peptide (first 23 residues) removed; C-terminal 6xHis in pET-29b(+), codon-optimised, E. coli BL21; tag kept
In words: malachite green phosphate release assay (PAP activity). It counts as biochemical. The settings on record: read-out: % inhibition at 1 mM.

Structures are written as SMILES.

T1 sequence (A0A7J6JXD8 entry or part of it): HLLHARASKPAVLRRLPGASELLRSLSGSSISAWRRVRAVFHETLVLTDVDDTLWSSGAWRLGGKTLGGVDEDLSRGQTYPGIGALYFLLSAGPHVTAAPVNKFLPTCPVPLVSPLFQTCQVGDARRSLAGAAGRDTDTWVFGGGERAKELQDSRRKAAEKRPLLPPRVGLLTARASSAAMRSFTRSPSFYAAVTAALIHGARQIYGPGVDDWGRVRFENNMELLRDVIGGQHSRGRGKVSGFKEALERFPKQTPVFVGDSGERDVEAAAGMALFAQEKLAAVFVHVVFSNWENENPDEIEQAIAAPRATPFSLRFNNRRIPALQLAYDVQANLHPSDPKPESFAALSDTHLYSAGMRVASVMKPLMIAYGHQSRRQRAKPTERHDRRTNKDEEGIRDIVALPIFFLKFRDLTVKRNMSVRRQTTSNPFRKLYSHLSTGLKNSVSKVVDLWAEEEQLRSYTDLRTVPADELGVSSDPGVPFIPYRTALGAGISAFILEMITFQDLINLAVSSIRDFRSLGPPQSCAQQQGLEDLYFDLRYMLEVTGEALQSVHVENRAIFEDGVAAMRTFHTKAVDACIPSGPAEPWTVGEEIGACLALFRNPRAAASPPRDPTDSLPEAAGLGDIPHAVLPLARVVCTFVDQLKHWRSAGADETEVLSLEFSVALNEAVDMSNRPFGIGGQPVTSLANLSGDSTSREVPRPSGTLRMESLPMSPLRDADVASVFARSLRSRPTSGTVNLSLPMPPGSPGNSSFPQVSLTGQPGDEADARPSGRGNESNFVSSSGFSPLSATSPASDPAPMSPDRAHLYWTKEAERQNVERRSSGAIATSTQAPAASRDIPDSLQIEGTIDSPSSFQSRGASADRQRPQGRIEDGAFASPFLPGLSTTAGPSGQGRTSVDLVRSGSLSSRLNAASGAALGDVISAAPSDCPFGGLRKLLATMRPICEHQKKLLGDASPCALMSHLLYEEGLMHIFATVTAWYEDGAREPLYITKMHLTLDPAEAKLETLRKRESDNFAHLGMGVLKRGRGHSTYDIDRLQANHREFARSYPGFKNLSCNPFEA

With `O=CC(=O)c1ccccc1` [phenylglyoxal], the inhibition at 1000 µM is 45%.
